Measured values reported in publication PMC8424644, “Thermodynamic Stability and Speciation of Ga(III) and Zr(IV) Complexes with High-Denticity Hydroxamate Chelators” (Inorganic Chemistry, 2021).
Marks after values point to notes of the source that are not given here.

How the values were obtained:
[1] = Fe(III) complex stability, pH-dependent UV–vis titrations; format: physicochemical
Description: To evaluate the thermodynamic stability of Ga(III) and Zr(IV) complexes of the investigated ligands, the binding properties and speciation of Fe(III) complexes have first been determined (all the details are given in the Supporting Information). There are several reasons for this protocol. First, (i) the electron configuration of Ga(III) (d^10) and Zr(IV) (d^0) hinders the attainment of spectral information for most of the complexes. Furthermore, (ii) both metal ions are highly acidic and they are readily hydrolyzed over almost the entire pH range. In addition, (iii) the high charge to size ratio of the Zr(IV) ion implies the formation of complexes with an exceptional thermodynamic stability (already at very low pH); as a consequence, the stability constants cannot be directly determined using standard potentiometric titrations. Thus, the thermodynamic stability constants of the Fe(III)-H3L1 and Fe(III)-H4L2 systems were first determined (using a combination of potentiometric and pH-dependent UV–vis titrations), followed by Fe(III)–Ga(III) and Fe(III)–Zr(IV) metal–metal competition experiments. […]

[2] = pZr calculation (ligand sequestering ability); format: physicochemical; settings: for pZr: pZr = −log[Zr(IV)free], pH 7.4, cL = 10 μM, cZr(IV) = 1 μM
Description: Despite a large variety of PET chelators synthesized and tested in order to provide strong coordination of Ga(III) and Zr(IV) in vivo, until now it is has been hard to avoid the release of these metal ions in the body. Here we report two new Ga(III) and Zr(IV) hydroxamate chelators, designed to achieve an efficient sequestering of these metal ions but also to understand how the cyclization and the introduction of an additional hydroxamate group influences the stability of Zr(IV) complexes. Therefore, it is important to evaluate and compare the Ga(III)- and Zr(IV)-sequestering abilities of H3L1 and H4L2 with those of other chelators. However, the direct comparison of the stability constants of metal complexes is not straightforward, and other tools taking into account all the physicochemical properties of the ligands, i.e. their denticity, coordination modes, and acid–base properties, should be used.[52] In order to reliably compare the chelating abilities of H3L1 and H4L2 toward Ga(III) and Zr(IV) ions, the pM values were calculated. pFe was originally introduced by Raymond for the comparison of iron-siderophore systems;[53] pGa = −log[Ga(III)free] and pZr = −log[Zr(IV)free] were calculated at pH 7.4 with cL = 10 μM and cGa(III)/Zr(IV) = 1 μM (Table 2).

Compound	pK of [FeHL] ([FeHL1]+ to [FeL1]) ([1]; from UV–vis log β values (supplement))	pZr [2]	log β [FeHL] ([1]; pH-dependent UV–vis titrations, 25 °C, I = 0.1 M NaClO4)	pZr higher than the values for Zr(IV)-DFOB and Zr(IV)-H3L1 [2]
O=C1CCCN(O)C(=O)CCCNC(=O)CCCN(O)C(=O)CCCNC(=O)CCCN(O)C(=O)CCCN1 [H3L1, 1,11,21-Trihydroxy-1,6,11,16,21,26-hexaazacyclotriacontane-2,7,12,17,22,27-hexaone]	3.21	32.4		
N[C@H]1CCCCNC(=O)CCCN(O)C(=O)CCCNC(=O)CCCN(O)C(=O)CCCNC(=O)CCCN(O)C(=O)CCCNC(=O)CCCN(O)C(=O)CCCNC1=O [H4L2, (S)-43-Amino-6,16,26,36-tetrahydroxy-1,6,11,16,21,26,31,36,41-nonaazacycloheptatetracontane-2,7,12,17,22,27,32,37,42-nonaone]		37.0	36.96(7) ^e	> 4 units
